{"source": "patent US20080076824A1", "about": "“Compounds That Inhibit Replication Of Human Immunodeficiency Virus” (priority 2004, published 2008)", "key": {"[1]": {"tested_on": "HIV-1 (IIIB)", "experiment": "microbe, parasite or virus in culture", "conditions": "Human immunodeficiency virus 1, IIIB, CCRF-CEM"}, "[2]": {"tested_on": "HIV-2 (ROD)", "experiment": "microbe, parasite or virus in culture", "assay_type": "cell-based", "conditions": "2 (ROD)", "protocol": "Human T-lymphocytic CEM cells (4.5×10^5 cells per ml) were suspended in fresh cell culture medium and infected with HIV-1 (IIIB and NL4.3) or HIV-2 (ROD or EHO) at 100 CCID50 (1 CCID50 being the virus dose infective for 50% of the cell cultures) per ml of cell suspension. Then, 100 μl of the infected cell suspension were transferred to microplate wells, mixed with 100 μl of appropriate (freshly prepared) dilutions of the test compounds (i.e., at final concentrations of […]), and were further incubated at 37° C. After 4 to 5 days, giant cell formation was recorded microscopically in the CEM cell cultures. […] (See Table 1).\nMT-4, C8166 or CEM cells (4 to 5×10^5 cells per ml) were suspended in fresh culture medium (RPMI-1640 medium supplemented with 10% fetal bovine serum (FBS) (BioWittaker Europe, Verviers, Belgium), 2 mM L-glutamine and […] NaHCO3). Subsequently, the cells were infected with HIV-1 (IIIB) or HIV-2(ROD) at ˜100 CCID50 (1 CCID50 being the dose infective for 50% of the cell cultures) per ml of cell suspension. Then, 100 μl of the infected cell suspension were transferred to 96-well microplate wells, mixed with 100 μl of the appropriate (5-fold) dilutions of the test compounds and further incubated at 37° C. After 4 to 5 days, giant cell formation was recorded microscopically in the CEM and C8166 cell cultures. The MT-4 cell cultures were treated with trypan blue and the number of viable cells was determined."}, "[3]": {"tested_on": "HIV-1 (NL4.3)", "conditions": "read-out: EC50 HIV-1 NL3.4; CEM cell cultures, syncytia formation", "protocol": "(§1) Human T-lymphocytic CEM cells (4.5×10^5 cells per ml) were suspended in fresh cell culture medium and infected with HIV-1 (IIIB and NL4.3) or HIV-2 (ROD or EHO) at 100 CCID50 (1 CCID50 being the virus dose infective for 50% of the cell cultures) per ml of cell suspension. Then, 100 μl of the infected cell suspension were transferred to microplate wells, mixed with 100 μl of appropriate (freshly prepared) dilutions of the test compounds (i.e., at final concentrations of […]), and were further incubated at 37° C. After 4 to 5 days, giant cell formation was recorded microscopically in the CEM cell cultures."}, "[4]": {"tested_on": "HIV-2 (EHO)", "protocol": "as §1"}, "[5]": {"tested_on": "HIV-1 (IIIB)", "conditions": "read-out: EC50 HIV-1 IIIB; CEM cell cultures, syncytia formation, Table 1"}, "[6]": {"experiment": "in vitro", "conditions": "human"}, "[7]": {"conditions": "read-out: EC50 against HIV-1(IIIB), CEM cell cultures, Table 2"}}, "note": "Where two headings read alike, the source gives them in different places. Non-standard residues stand in square brackets, D forms with d. Residues, ends and D or L forms follow the SMILES beside them. Sar = CNCC(=O)O"}
{"smiles": "NC(=O)[C@@H](N)Cc1ccccc1", "note": "[L-Phenylalaninamide]", "values": [{"measurement": "EC50", "setting": "[1]; [7]", "value": "> 500", "unit": "µM"}]}
{"smiles": "N=C(N)NCCC[C@H](N)C(N)=O", "note": "[L-Argininamide]", "values": [{"measurement": "EC50", "setting": "[1]; [7]", "value": "> 500", "unit": "µM"}]}
{"smiles": "NCCN", "note": "[Ethylene diamine]", "values": [{"measurement": "EC50", "setting": "[1]; [7]", "value": "> 1000", "unit": "µM"}]}
{"smiles": "O=C(O)[C@@H]1CCCN1", "note": "[L-Proline]", "values": [{"measurement": "EC50", "setting": "[1]; [7]", "value": "> 500", "unit": "µM"}]}
{"smiles": "CC(C)(C)OC(=O)NC(=O)C(N)OCc1ccccc1", "note": "(stereo not drawn) [Example 20, α-benzyloxy-N-tert-butoxycarbonylglycinamide]", "values": [{"measurement": "melting point", "value": "115 to 120", "unit": "°C"}]}
{"smiles": "CC(C)C[C@H](N)C(=O)O", "note": "[L-Leucine]", "values": [{"measurement": "EC50", "setting": "[1]; [7]", "value": "> 500", "unit": "µM"}]}
{"smiles": "CCOC(N)C(=O)NC(=O)OCc1ccccc1", "note": "(stereo not drawn) [Example 25, α-ethoxy-N-benzyloxycarbonylglycinamide]", "values": [{"measurement": "melting point", "value": "119 to 121", "unit": "°C"}]}
{"smiles": "CNCC(=O)N1CCC[C@H]1C(=O)NCC(N)=O", "note": "[SAR-PG-NH2, sarcosinylprolylglycinamide] (H-[Sar]-Pro-Gly-NH2)", "values": [{"measurement": "EC50", "setting": "[2]", "value": "35 ± 9.8", "unit": "µM"}, {"measurement": "EC50", "setting": "[3]", "value": 49, "unit": "µM"}, {"measurement": "EC50", "setting": "[4]", "value": 56, "unit": "µM"}, {"measurement": "EC50", "setting": "[5]", "value": "31 ± 4.9", "unit": "µM"}, {"measurement": "EC50", "setting": "[6]", "value": "> 1500", "unit": "µM"}]}
{"smiles": "C[C@H](N)C(N)=O", "note": "[L-Alaninamide]", "values": [{"measurement": "EC50", "setting": "[1]; [7]", "value": "> 500", "unit": "µM"}]}
{"smiles": "CCOC(=O)C(NC(=O)OCc1ccccc1)OCC", "note": "(stereo not drawn) [Example 23, α-ethoxy-N-benzyloxycarbonylglycine ethyl ester]", "values": [{"measurement": "melting point", "value": "66 to 68", "unit": "°C"}]}
{"smiles": "CC(C)[C@H](N)C(N)=O", "note": "[L-Valinamide]", "values": [{"measurement": "EC50", "setting": "[1]; [7]", "value": "> 500", "unit": "µM"}]}
{"smiles": "CC(C)C[C@H](N)C(N)=O", "note": "[L-Leucinamide]", "values": [{"measurement": "EC50", "setting": "[1]; [7]", "value": "> 500", "unit": "µM"}]}
{"smiles": "NCC(=O)CN", "note": "[1,3-diaminoaceton]", "values": [{"measurement": "EC50", "setting": "[1]; [7]", "value": "> 1000", "unit": "µM"}]}
{"smiles": "NCCCC[C@H](N)C(N)=O", "note": "[L-Lysinamide]", "values": [{"measurement": "EC50", "setting": "[1]; read-out: EC50 against HIV-1(IIIB)", "value": "> 500", "unit": "µM"}]}
{"smiles": "CC(C)OC(N)C(=O)NC(=O)OCc1ccccc1", "note": "(stereo not drawn) [Example 26, α-isopropoxy-N-benzyloxycarbonylglycinamide]", "values": [{"measurement": "melting point", "value": "111 to 113", "unit": "°C"}]}
{"smiles": "C[C@H](N)C(=O)O", "note": "[L-Alanine]", "values": [{"measurement": "EC50", "setting": "[1]; [7]", "value": "> 500", "unit": "µM"}]}
{"smiles": "NC(=O)C(N)Cc1c[nH]c2ccccc12", "note": "(racemic) [DL-Tryptophanamide]", "values": [{"measurement": "EC50", "setting": "[1]; [7]", "value": "> 500", "unit": "µM"}]}
{"smiles": "C[C@@H](O)[C@H](N)C(N)=O", "note": "[L-Threoninamide]", "values": [{"measurement": "EC50", "setting": "[1]; [7]", "value": "> 500", "unit": "µM"}]}
{"smiles": "NC(=O)CC[C@H](N)C(=O)N1CCC[C@H]1C(=O)NCC(N)=O", "note": "[Q-PG-NH2, glutaminylprolylglycinamide] (H-Gln-Pro-Gly-NH2)", "values": [{"measurement": "EC50", "setting": "[2]", "value": 89, "unit": "µM"}, {"measurement": "EC50", "setting": "[3]", "value": 265, "unit": "µM"}, {"measurement": "EC50", "setting": "[4]", "value": 82, "unit": "µM"}, {"measurement": "EC50", "setting": "[5]", "value": 86, "unit": "µM"}, {"measurement": "EC50", "setting": "[6]", "value": "> 1500", "unit": "µM"}]}
{"smiles": "CC(C)CC(N)C(N)=O", "note": "(racemic) [DL-Leucinamide]", "values": [{"measurement": "EC50", "setting": "[1]; [7]", "value": "> 500", "unit": "µM"}]}
